From patent US9861703B2 (Jinan Platinum Pharmatech Co. Ltd., priority 2013, dated 2018)
Like-named read-outs stand apart in the source and are kept apart here.

Columns and labels:
[1] = test system: human leukemia cell line K562; experiment: MTT proliferation inhibition, K562; type: cell-based; conditions: Homo sapiens, K562, 48 h
Description: (§1) Human leukemia cell line K562, clear-cell ovarian carcinoma cell line ES-2, human prostate cancer cell line PC-3, human breast cancer cell line MCF-7, cell line Hela, human liver cancer cell line H7402 and human ovarian cancer cell line 3-AO were transferred into a culture flask and were cultured in a medium at 37° C. in a 5% CO2 and saturation humidity. One bottle of cells in logarithmic growth phase was picked out and was blew and beaten to be uniform with a pipette, then took some cell suspension solution to prepare blood counting plate smear to count cells under inverted microscope, and then adjusted the cell number to be 1×10^5/mL by adding some culture medium. Cells were seeded on a 96-well plate on which also drug tests performed. Blank control group, negative control group, positive control group and drug test group were established on the plate while the surrounding wells of the plate were not used (but filled with sterile PBS), wherein the blank control groups were prepared by addition of culture medium 150 μL per well, the negative control groups were prepared by addition of cell suspension solution 100 μL per well and culture medium 50 μL per well, the positive control groups were prepared by addition of cell suspension solution 100 μL per well and positive control drug solution 50 μL per well, the drug test groups were prepared by addition of cell suspension solution 100 μL per well and test compound solution 50 μL per well, and there were 5 different concentrations of drug in the positive control group and the drug test group respectively: 0.01, 0.1, 1, 10, 100 μmol·L^−1, each concentration was established with 3 parallel wells. After the drug was added, the 96-well plate was incubated for 48 h at 37° C. in a CO2 incubator of 5% CO2 and saturation humidity. Upon completion of the incubation, 20 μL MTT solution (concentration was 5 mg/mL) was added to each well and incubated for an additional 4 h, and after the 96-well plate was centrifuged at 2000 rpm for 30 min, medium of each well was suck out carefully and removed and 100 μL DMSO was added instead, followed by vibrating on a tablet shaker for 15 min to re-dissolve formazan crystals completely. OD value of each well was measured at 570 nm wavelength using an enzyme-linked immunosorbent assay reader to calculate cellular proliferation inhibitory ratio of each drug in different concentrations. And half-inhibitory concentration (IC50) was calculated using statistical software SPSS 16.0, wherein the cellular proliferation inhibitory ratio can be calculated as following equation: […]

cell line Hela = experiment: MTT proliferation inhibition, Hela; type: cell-based; conditions: Homo sapiens, 48 h
Description: as §1

[2] = test system: human breast cancer cell line MCF-7; experiment: MTT proliferation inhibition, MCF-7; type: cell-based; conditions: Homo sapiens, MCF7, 48 h
Description: as §1

[3] = test system: human prostate cancer cell line PC-3; experiment: MTT proliferation inhibition, PC-3; type: cell-based; conditions: Homo sapiens, 48 h
Description: as §1

H22 tumor cells [4] = conditions: Kunming, mouse, in vivo, 14 days
Description: (§2) The ascites was extracted from H22 tumour bearing mice with well growth, followed by adding sterile PBS to dilute the ascites to a concentration of 8.5×10^7 cells/mL. 100 uL of the cells solution was suck up by a 1 mL sterile injector to inoculate into right oxter of mice. After 3 days, the mice were weighted and randomized to several groups (almost 8 mice per group, and a bit more in control group). These mice were administrated a predetermined dosage by intravenous or oral gavage with two days off when having administrated for 5 days until two cycles one of which had 7 days. The body weight of mouse was recorded at the beginning and ending of every cycle,
(§3) After being administrated for two cycles, the mice were weighted and recorded, then sacrificed by cervical dislocation to get lung, liver and spleen weighted respectively.
(§4) Overall difference was calculated by the function of one-way analysis of variance (One-Way ANOVA) in Origin 7.5 software; and t-test was used for pair-comparison between drug administrated group and blank group, and the inhibitory ratio of drug in each group was calculated based on the following equation: inhibitory ratio (100%)=(mean tumor weight of control group−mean tumor weight of drug administrated group)/mean tumor weight of control group×100.

liver cancer H22 [5] = experiment: Inhibition assay of intravenous administration against liver cancer H22 (Example 33)
Description: Extracted the ascites from H22 ascites tumour bearing mice, washed the ascites with sterile PBS for three times and then resuspended the cells with sterile PBS (cells counts: 3.75×10^7 cells/mL), inoculated it into right oxter of Kunming mice 100 uL per mouse.
The H22 tumor-bearing mice were randomized to 4 groups (7 mice per group) after being weighted. […] The size of tumor was measured by using a vernier calliper and weight of mouse by using an electronic balance at the beginning and ending of every cycle, then calculated their mean value. The mice were sacrificed after 13 days and the tumors were taken out and weighted. Tumor volume and inhibitory ratio were calculated as the following equation (L and W referred to length and width of tumor respectively): […]

[6] = test system: human liver cancer cell line H7402; experiment: MTT proliferation inhibition, H7402; type: cell-based; conditions: Homo sapiens, H7402, 48 h
Description: as §1

H22 tumor cells [7] = experiment: Activities of compounds in H22 tumor cells bearing Kunming mice models (Example 34); conditions: for Tumor growth inhibition (%) / Tumor weight: after two cycles
Description: as §2, §3, §4

[8] = test system: human ovarian cancer cell line 3-AO; experiment: MTT proliferation inhibition, 3-AO; type: cell-based; conditions: Homo sapiens, 48 h
Description: as §1

liver cancer H22 [9] = experiment: Inhibition assay of oral administration against liver cancer H22 (Example 33); type: in vivo, Kunming mice; conditions: oral gavage, sacrificed after 13 days; for Tumor weight: two cycles (5 days on, 2 off); for inhibitory ratio (%): two cycles
Description: (1) the negative control: PBS; (2) Xeloda group: 100 mg/kg/d; (3) TFU group: 70 mg/kg/d; (4) BC-01 group: 100 mg/kg/d.
[formula] [formula] [formula] 2.2: Inhibition Assay of Intravenous Administration Against Liver Cancer H22

[10] = mouse, in vivo, iv, 20 mg/kg/day
[11] = tail intravenous injection, 20 mg/kg/d, sacrificed after 13 days
[12] = intravenous injection, 20 mg/kg/d (0.15 mmol/kg/d)
[13] = oral gavage, 108 mg/kg/d (0.3 mmol/kg/d)

Oc1ncc(F)c(O)n1 [Compound 5-FU, 2,4-dihydroxy-5-fluoropyrimidine, reference compound]
EC50 [1]: 16 µM
EC50 (cell line Hela): 133 µM
EC50 [2]: 76.9 µM
EC50 [3]: 15.7 µM
Number of mice alive (H22 tumor cells [4]; iv, 20 mg/kg/day): 4
Number of mice alive (liver cancer H22 [5]; Kunming, mouse, in vivo, iv, 20 mg/kg/day, 13 days): 7
Body weight(g) Beginning (liver cancer H22 [5]; [10]): 31.37 ± 4.05 g
Body weight(g) Ending (liver cancer H22 [5]; [10]): 31.92 ± 4.98 g
Tumor weight (liver cancer H22 [5]; [11]): 0.84 ± 0.19 g
inhibitory ratio (%) (liver cancer H22 [5]; [11]): 38.83%
EC50 [6]: 385 µM
Tumor growth inhibition (%) (H22 tumor cells [7]; [12]): 10.41%
Tumor weight (H22 tumor cells [7]; [12]): 0.54 ± 0.06 g
Body weight(g) Beginning (H22 tumor cells [7]; [12]): 26.89 ± 2.06 g
Body weight(g) Ending (H22 tumor cells [7]; [12]): 25.51 ± 4.50 g
EC50 [8]: 60.8 µM

O=c1[nH]c(=O)n(C2CCCO2)cc1F (stereo not shown) [TFU]
Tumor weight (liver cancer H22 [9]; 70 mg/kg/d): 0.68 g
inhibitory ratio (%) (liver cancer H22 [9]; 70 mg/kg/d): 13.38%

CCCCCOC(=O)Nc1nc(=O)n([C@@H]2O[C@H](C)[C@@H](O)[C@H]2O)cc1F [Xeloda, capecitabine, reference compound]
Number of mice alive (H22 tumor cells [4]; po, 108 mg/kg/day): 7
Tumor weight (liver cancer H22 [9]; 100 mg/kg/d): 0.6 g
inhibitory ratio (%) (liver cancer H22 [9]; 100 mg/kg/d): 24.53%
Tumor growth inhibition (%) (H22 tumor cells [7]; [13]): 40.95%
Tumor weight (H22 tumor cells [7]; [13]): 0.35 ± 0.09 g
Body weight(g) Beginning (H22 tumor cells [7]; [13]): 33.00 ± 1.81 g
Body weight(g) Ending (H22 tumor cells [7]; [13]): 31.42 ± 3.56 g
